Assay results reported in PubChem BioAssay AID1963422 (Molecular Pharmacology Branch, DTP, NCI, 2024).

Test system: 463943-066-T-J2-PDC complex spheroid growth
Assay: Anticancer human tumor 463943-066-T-J2-PDC patient-derived colon adenocarcinoma cell line growth inhibition [Asc]
Settings: for IC50: curve of first compound; for viability, T/C: stronger effect = lower value
Experimental: Multicellular complex tumor spheroid response to apoptosis pathway targeting inhibitors Alrizomadlin, Pelcitoclax, and Dasminapant in combination with a variety of drugs and investigational agents in selected tumor cell lines
The MDM2 inhibitor alrizomadlin, the Bcl-2/Bcl-xL inhibitor pelcitoclax, and the IAPs inhibitor dasminapant were evaluated both individually and in combination with standard of care and investigational anticancer small molecules within a complex spheroid model of solid tumors. . Complex spheroids include a stromal component modeled by human endothelial cells (HUVEC) and fibroblasts modeled by human mesenchymal stem cells (MSCs). The concentration ranges selected for each drug and investigational agent were based upon clinically achievable concentrations if the clinical Cmax of the agent was known.
Compounds. The drugs and investigational agents: alrizomadlin (APG-115; NSC831270), pelcitoclax (APG-1252; NSC835773), dasminapant (APG-1387;NSC834197), TAK-243 (NSC785004), copanlisib (NSC809693), olaparib (NSC753686), talazoparib (NSC767125), cobimetinib (NSC 768068), eltanexor (KPT-8602, NSC 794443), abemaciclib (NSC 768073), sotorasib (NSC818433), adagrasib (NSC 831453), MRTX-1133 (NSC 836407), Iadademestat (ORY1001, NSC 806812), and RMC-4630 (NSC839698), were obtained from the NCI Developmental Therapeutics Program Chemical Repository. The FDA-approved anticancer drug set is available from the Developmental Therapeutics Program at https://dtp.cancer.gov/organization/dscb/obtaining/available plates.htm. […] The stock solutions were prepared in dimethyl sulfoxide (DMSO, Sigma-Aldrich, St. Louis, MO, cat. D2650) at 800-fold the tested concentration and stored at -70 degrees C prior to their use. All drugs and investigational agents were tested over a range starting from a high concentration at or near the clinical Cmax and decreasing in half-log increments. If the clinical Cmax for an agent had not been determined, the highest concentration tested was 10 microM.
The patient-derived cancer (PDC) cell lines include five colon adenocarcinomas: 186277-243-T-J2-PDC, 616215-338-R-J1-PDC, 439559-082-T-J2-PDC, 463943-066-T-J2-PDC, and 519858-162-T-J1-PDC; three pancreatic carcinomas: 323965-272-R-J2-PDC, 521955-158-R6-J3-PDC, and 521955-158-R2-J5-PDC; two uterine sarcomas: 327498-152-R-J2-PDC and 993429-296-R-J1-PDC; two rhabdomyosarcomas: 755483-174-R-J1-PDC and 772245-204-R-J1-PDC; two soft tissue sarcomas: 126254-015-R-J1-PDC and 494315-158-R-J1-PDC; two malignant fibrous histiocytomas: 317291-083-R-J1-PDC and 596521-263-R-J1-PDC; two breast carcinomas: 171881-019-R-J1-PDC and 885512-296-R-J2-PDC; and one ovarian carcinoma: 6556581-035-R-J-PDC were obtained from the NCI PDMR, (https://pdmr.cancer.gov). The established cell lines HSSY-2 synovial sarcoma (RRID:CVCL 8719), SYO-1 synovial sarcoma (RRID:CVCL_7146), MPNST malignant peripheral neural sheath tumor were obtained from the Sloan Kettering Institute. The following established cell lines were purchased from the American Type Culture Collection (ATCC, Manassas, VA), Sor the received from the NCI repository:, PANC-1 pancreatic carcinoma (CRL-1469, RRID:CVCL_0480), OVCAR-5 ovarian carcinoma (RRID:CVCL_1628), OVCAR-8 ovarian carcinoma (RRID:CVCL_1629), , MCF-7 breast carcinoma (CRL-12584, RRID:CVCL_0031), MDA-MB-231 breast carcinoma (CRL-12532, RRID:CVCL_0062), NCI-H1876 small cell lung carcinoma (CRL-5902, RRID:CVCL_1503), NCI-H510A small cell lung carcinoma (HTB-184, RRID:CVCL_1565), NCI-H1417 (CRL-5869, RRID:CVCL_1469), and NCI-H196 small cell lung carcinoma (CRL-5823, RRID:CVCL_1509). Dr. Peter Houghton (Greehey Children's Cancer Research Institute, University of Texas Health Science Center, San Antonio, TX) provided Rh-18 rhabdomyosarcoma (RRID:CVCL_1659). Pooled donor human umbilical vein endothelial cells (HUVEC, Lonza, cat. CC-2519) and human mesenchymal stem cells (hMSC, Lonza, cat. PT-2501) were purchased from Lonza (Walkersville, MD).
Cell Culture. […]

[1] = second compound 0.00949 µM, first compound 0.0316 µM
[2] = second compound 0.00949 µM, first compound 0.1 µM
[3] = second compound 0.03 µM, first compound 0.0316 µM
[4] = second compound 0.03 µM, first compound 0.1 µM
[5] = second compound 0.0949 µM, first compound 0.0316 µM
[6] = second compound 0.0949 µM, first compound 0.1 µM
[7] = second compound 0.3 µM, first compound 0.0316 µM
[8] = second compound 0.3 µM, first compound 0.1 µM
[9] = second compound 0.949 µM, first compound 0.0316 µM
[10] = second compound 0.949 µM, first compound 0.1 µM
[11] = second compound 3 µM, first compound 0.0316 µM
[12] = second compound 3 µM, first compound 0.1 µM
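Note: compound exposure lasted 7 days.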
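Throughout, for viability, T/C: 100% = DMSO vehicle control wells.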

Question: What does the source list for `C=C(F)C(=O)N1CCN(c2nc(OCC3CCCN3C)nc3c2CCN(c2cccc4cccc(Cl)c24)C3)CC1CC#N` (centres undefined) + CCN1C(C(=O)NC23CCC(C(=O)O)(CC2)CC3)C(c2cccc(Cl)c2F)C2(C(=O)Nc3cc(Cl)ccc32)C12CCCCC2?
Answer: IC50 (second compound 0.00949 µM): 6.05 µM; IC50 (second compound 0.03 µM): 6.36 µM; IC50 (second compound 0.0949 µM): 6.24 µM; IC50 (second compound 0.3 µM): 6.01 µM; IC50 (second compound 0.949 µM): 6.26 µM; IC50 (second compound 3 µM): 5.8 µM; viability, T/C [1]: 97.4%; viability, T/C [2]: 92.9%; viability, T/C (second compound 0.00949 µM, first compound 0.316 µM): 103%; viability, T/C (second compound 0.00949 µM, first compound 1 µM): 104%; viability, T/C (second compound 0.00949 µM, first compound 3.16 µM): 91.9%; viability, T/C (second compound 0.00949 µM, first compound 10 µM): 17.2%; viability, T/C [3]: 93.4%; viability, T/C [4]: 93.9%; viability, T/C (second compound 0.03 µM, first compound 0.316 µM): 93.1%; viability, T/C (second compound 0.03 µM, first compound 1 µM): 101%; viability, T/C (second compound 0.03 µM, first compound 3.16 µM): 97.3%; viability, T/C (second compound 0.03 µM, first compound 10 µM): 20.3%; viability, T/C [5]: 91.7%; viability, T/C [6]: 87.3%; viability, T/C (second compound 0.0949 µM, first compound 0.316 µM): 88.3%; viability, T/C (second compound 0.0949 µM, first compound 1 µM): 97.8%; viability, T/C (second compound 0.0949 µM, first compound 3.16 µM): 87.3%; viability, T/C (second compound 0.0949 µM, first compound 10 µM): 23.9%; viability, T/C [7]: 82%; viability, T/C [8]: 85.4%; viability, T/C (second compound 0.3 µM, first compound 0.316 µM): 83.6%; viability, T/C (second compound 0.3 µM, first compound 1 µM): 90.5%; viability, T/C (second compound 0.3 µM, first compound 3.16 µM): 79.1%; viability, T/C (second compound 0.3 µM, first compound 10 µM): 26.3%; viability, T/C [9]: 71.9%; viability, T/C [10]: 81%; viability, T/C (second compound 0.949 µM, first compound 0.316 µM): 76%; viability, T/C (second compound 0.949 µM, first compound 1 µM): 83.6%; viability, T/C (second compound 0.949 µM, first compound 3.16 µM): 78.1%; viability, T/C (second compound 0.949 µM, first compound 10 µM): 30.8%; viability, T/C [11]: 70.8%; viability, T/C [12]: 71.5%; viability, T/C (second compound 3 µM, first compound 0.316 µM): 74%; viability, T/C (second compound 3 µM, first compound 1 µM): 78.9%; viability, T/C (second compound 3 µM, first compound 3.16 µM): 77.5%; viability, T/C (second compound 3 µM, first compound 10 µM): 28%

Question: Which results are given for `Cn1ncnc1[C@H]1c2n[nH]c(=O)c3cc(F)cc(c23)N[C@@H]1c1ccc(F)cc1` + CCN1C(C(=O)NC23CCC(C(=O)O)(CC2)CC3)C(c2cccc(Cl)c2F)C2(C(=O)Nc3cc(Cl)ccc32)C12CCCCC2?
Answer: IC50 (second compound 0.00949 µM): > 0.1 µM; IC50 (second compound 0.03 µM): > 0.1 µM; IC50 (second compound 0.0949 µM): > 0.1 µM; IC50 (second compound 0.3 µM): > 0.1 µM; IC50 (second compound 0.949 µM): > 0.1 µM; IC50 (second compound 3 µM): > 0.1 µM; viability, T/C (second compound 0.00949 µM, first compound 0.000316 µM): 102%; viability, T/C (second compound 0.00949 µM, first compound 0.001 µM): 96.2%; viability, T/C (second compound 0.00949 µM, first compound 0.00316 µM): 106%; viability, T/C (second compound 0.00949 µM, first compound 0.01 µM): 97.2%; viability, T/C [1]: 100%; viability, T/C [2]: 88.1%; viability, T/C (second compound 0.03 µM, first compound 0.000316 µM): 98.7%; viability, T/C (second compound 0.03 µM, first compound 0.001 µM): 98.6%; viability, T/C (second compound 0.03 µM, first compound 0.00316 µM): 95.7%; viability, T/C (second compound 0.03 µM, first compound 0.01 µM): 98.2%; viability, T/C [3]: 96.5%; viability, T/C [4]: 90.1%; viability, T/C (second compound 0.0949 µM, first compound 0.000316 µM): 101%; viability, T/C (second compound 0.0949 µM, first compound 0.001 µM): 89.1%; viability, T/C (second compound 0.0949 µM, first compound 0.00316 µM): 89.8%; viability, T/C (second compound 0.0949 µM, first compound 0.01 µM): 89.6%; viability, T/C [5]: 92.8%; viability, T/C [6]: 79.1%; viability, T/C (second compound 0.3 µM, first compound 0.000316 µM): 85.4%; viability, T/C (second compound 0.3 µM, first compound 0.001 µM): 85.3%; viability, T/C (second compound 0.3 µM, first compound 0.00316 µM): 85.7%; viability, T/C (second compound 0.3 µM, first compound 0.01 µM): 85.6%; viability, T/C [7]: 81.5%; viability, T/C [8]: 79%; viability, T/C (second compound 0.949 µM, first compound 0.000316 µM): 75.4%; viability, T/C (second compound 0.949 µM, first compound 0.001 µM): 76.1%; viability, T/C (second compound 0.949 µM, first compound 0.00316 µM): 72.5%; viability, T/C (second compound 0.949 µM, first compound 0.01 µM): 77.9%; viability, T/C [9]: 75.4%; viability, T/C [10]: 76.3%; viability, T/C (second compound 3 µM, first compound 0.000316 µM): 71.1%; viability, T/C (second compound 3 µM, first compound 0.001 µM): 70.2%; viability, T/C (second compound 3 µM, first compound 0.00316 µM): 75.3%; viability, T/C (second compound 3 µM, first compound 0.01 µM): 67.4%; viability, T/C [11]: 73.2%; viability, T/C [12]: 74%
